Measurements: patent US20250197407A1 (Jazz Pharmaceuticals Ireland Limited, priority 2022, published 2025)

Target: SOS1/KRAS WT (Homo sapiens (Human), UniProt Q07889)
Assay: SOS1/KRAS WT HTRF binding assay (FRET-based protein-protein interaction)
Conditions: inhibition of His6-SOS1 (aa564-1049, 40 nM) binding to GST-KRAS-WT (aa1-188, 40 nM); at least two independent replicates; read-out: SOS1/KRAS WT HTRF Binding assay pIC50 (converted)
Procedure, shortened: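 Time-resolved FRET at 665 nm, read 4 hr after adding anti-GST-Eu(K) (4 nM) and anti-6His-XL665 (20 nM), tracked SOS1(aa564-1049)–KRAS WT(aa1-188) association. Both proteins were at 40 nM, pre-incubated 60 min at room temperature with compound. Max/min signals came from 0.05% DMSO and 10 μM reference, with four-parameter logistic IC50.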

Chain of SOS1/KRAS WT (Q07889 564-1049): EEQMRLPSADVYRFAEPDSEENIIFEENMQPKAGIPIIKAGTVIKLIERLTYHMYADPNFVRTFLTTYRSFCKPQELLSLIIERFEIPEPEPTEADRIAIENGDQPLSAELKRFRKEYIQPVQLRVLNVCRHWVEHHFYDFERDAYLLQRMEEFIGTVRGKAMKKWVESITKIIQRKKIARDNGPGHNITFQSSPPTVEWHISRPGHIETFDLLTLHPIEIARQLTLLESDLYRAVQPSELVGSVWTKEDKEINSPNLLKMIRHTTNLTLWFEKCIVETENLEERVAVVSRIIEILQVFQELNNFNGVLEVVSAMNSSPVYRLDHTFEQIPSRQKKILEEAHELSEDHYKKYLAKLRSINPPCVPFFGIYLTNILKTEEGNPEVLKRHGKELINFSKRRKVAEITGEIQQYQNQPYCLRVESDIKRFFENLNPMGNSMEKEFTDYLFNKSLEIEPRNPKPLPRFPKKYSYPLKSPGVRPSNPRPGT

SMILES | IC50 [nM]
Cc1cc(-c2cccc([C@@H](C)Nc3nnc(C)c4cc5c(cc34)n(C)c(=O)n5C)c2C)n(C)n1 [Compound 156, 1,3,8-trimethyl-5-[[(1R)-1-[3-(2,5-dimethylpyrazol-3-yl)-2-methyl-phenyl]ethyl]amino]imidazo[4,5-g]phthalazin-2-one] | 89.1
Cc1c(C2=CCOCC2)cccc1[C@@H](C)Nc1nnc(C)c2cc3c(cc12)n(C)c(=O)n3C [Compound 157, 5-[[(1R)-1-[3-(3,6-dihydro-2H-pyran-4-yl)-2-methyl-phenyl]ethyl]amino]-1,3,8-trimethyl-imidazo[4,5-g]phthalazin-2-one] | 204
Cc1c(C2=CCNC2)cccc1[C@@H](C)Nc1nnc(C)c2cc3c(cc12)n(C)c(=O)n3C [Compound 158, 1,3,8-trimethyl-5-[[(1R)-1-[3-(2,5-dihydro-1H-pyrrol-3-yl)-2-methyl-phenyl]ethyl]amino]imidazo[4,5-g]phthalazin-2-one] | 120
Cc1c(-c2cncs2)cccc1[C@@H](C)Nc1nnc(C)c2cc3c(cc12)n(C)c(=O)n3C [Compound 159, 1,3,8-trimethyl-5-[[(1R)-1-(2-methyl-3-thiazol-5-yl-phenyl)ethyl]amino]imidazo[4,5-g]phthalazin-2-one] | 17.8
Cc1c(C2CCOCC2)cccc1[C@@H](C)Nc1nnc(C)c2cc3c(cc12)n(C)c(=O)n3C [Compound 160, 1,3,8-trimethyl-5-[[(1R)-1-(2-methyl-3-tetrahydropyran-4-yl-phenyl)ethyl]amino]imidazo[4,5-g]phthalazin-2-one] | 269
Cc1c(C2CCNC2)cccc1[C@@H](C)Nc1nnc(C)c2cc3c(cc12)n(C)c(=O)n3C (stereo partly drawn) [Compound 161, 1,3,8-trimethyl-5-[[(1R)-1-(2-methyl-3-pyrrolidin-3-yl-phenyl)ethyl]amino]imidazo[4,5-g]phthalazin-2-one] | 589
CCOC1(C)C(=O)N(C2CC2)c2cc3c(N[C@H](C)c4cccc(C(F)(F)CO)c4)nnc(C)c3cc21 (stereo partly drawn) [Compound 162, 1-cyclopropyl-8-[[(1R)-1-[3-(1,1-difluoro-2-hydroxy-ethyl)phenyl]ethyl]amino]-3-ethoxy-3,5-dimethyl-pyrrolo[3,2-g]phthalazin-2-one] | 9.12
CCOC1(C)C(=O)N(C2CC2)c2cc3c(N[C@H](C)c4cccc(C(F)(F)C(C)(C)O)c4F)nnc(C)c3cc21 (stereo partly drawn) [Compound 163, 1-cyclopropyl-3-ethoxy-3,5-dimethyl-8-[[(1R)-1-[3-(1,1-difluoro-2-hydroxy-2-methyl-propyl)-2-fluoro-phenyl]ethyl]amino]pyrrolo[2,3-g]phthalazin-2-one] | 10.7
CCOC1(C)C(=O)N(C2CC2)c2cc3c(N[C@H](C)c4cccc(C(F)(F)CO)c4F)nnc(C)c3cc21 (stereo partly drawn) [Compound 164, 1-cyclopropyl-3-ethoxy-3,5-dimethyl-8-[[(1R)-1-[3-(1,1-difluoro-2-hydroxy-ethyl)-2-fluoro-phenyl]ethyl]amino]pyrrolo[2,3-g]phthalazin-2-one] | 11.5
CCOC1(C)C(=O)N(C2CC2)c2cc3c(N[C@H](C)c4cccc(C(F)(F)C(C)(C)O)c4)nnc(C)c3cc21 (stereo partly drawn) [Compound 165, 1-cyclopropyl-3-ethoxy-3,5-dimethyl-8-[[(1R)-1-[3-(1,1-difluoro-2-hydroxy-2-methyl-propyl)phenyl]ethyl]amino]pyrrolo [2,3-g]phthalazin-2-one] | 10
CCOC1(C)C(=O)N(C2CC2)c2cc3c(N[C@H](C)c4cccc(C(F)(F)C(C)(C)O)c4C)nnc(C)c3cc21 (stereo partly drawn) [Compound 166, 1-cyclopropyl-3-ethoxy-3,5-dimethyl-8-[[(1R)-1-[3-(1,1-difluoro-2-hydroxy-2-methyl-propyl)-2-methyl-phenyl]ethyl]amino]pyrrolo[2,3-g]phthalazin-2-one] | 14.8
CCOC1(C)C(=O)N(C2CC2)c2cc3c(N[C@H](C)c4cccc(C(F)(F)CO)c4C)nnc(C)c3cc21 (stereo partly drawn) [Compound 167, 1-cyclopropyl-3-ethoxy-3,5-dimethyl-8-[[(1R)-1-[3-(1,1-difluoro-2-hydroxy-ethyl)-2-methyl-phenyl]ethyl]amino]pyrrolo[2,3-g]phthalazin-2-one] | 12.6
CCN1C(=O)C(C)(OC)c2cc3c(C)nnc(N[C@H](C)c4cccc(C(F)(F)CO)c4C)c3cc21 (stereo partly drawn) [Compound 168, 1-ethyl-3-methoxy-3,5-dimethyl-8-[[(1R)-1-[3-(1,1-difluoro-2-hydroxy-ethyl)-2-methyl-phenyl]ethyl]amino]pyrrolo[2,3-g]phthalazin-2-one] | 8.91
CCN1C(=O)C(C)(OC)c2cc3c(C)nnc(N[C@H](C)c4cccc(C(F)(F)C(C)(C)O)c4C)c3cc21 (stereo partly drawn) [Compound 169, 1-ethyl-3-methoxy-3,5-dimethyl-8-[[(1R)-1-[3-(1,1-difluoro-2-hydroxy-2-methyl-propyl)-2-methyl-phenyl]ethyl]amino]pyrrolo[2,3-g]phthalazin-2-one] | 10.2
CCN1C(=O)C(C)(OC)c2cc3c(C)nnc(N[C@H](C)c4cccc(C(F)(F)C(C)(C)O)c4F)c3cc21 (stereo partly drawn) [Compound 170, 1-ethyl-3-methoxy-3,5-dimethyl-8-[[(1R)-1-[3-(1,1-difluoro-2-hydroxy-2-methyl-propyl)-2-fluoro-phenyl]ethyl]amino]pyrrolo[2,3-g]phthalazin-2-one] | 9.12
CCN1C(=O)C(C)(OC)c2cc3c(C)nnc(N[C@H](C)c4cccc(C(F)(F)CO)c4)c3cc21 (stereo partly drawn) [Compound 171, 1-ethyl-3-methoxy-3,5-dimethyl-8-[[(1R)-1-[3-(1,1-difluoro-2-hydroxy-ethyl)phenyl]ethyl]amino]pyrrolo [2,3-g]phthalazin-2-one] | 9.77
CCN1C(=O)C(C)(OC)c2cc3c(C)nnc(N[C@H](C)c4cccc(C(F)(F)CO)c4F)c3cc21 (stereo partly drawn) [Compound 172, 1-ethyl-3-methoxy-3,5-dimethyl-8-[[(1R)-1-[3-(1,1-difluoro-2-hydroxy-ethyl)-2-fluoro-phenyl]ethyl]amino]pyrrolo[2,3-g]phthalazin-2-one] | 9.77
CCN1C(=O)C(C)(OC)c2cc3c(C)nnc(N[C@H](C)c4cccc(C(F)(F)C(C)(C)O)c4)c3cc21 (stereo partly drawn) [Compound 173, 1-ethyl-3-methoxy-3,5-dimethyl-8-[[(1R)-1-[3-(1,1-difluoro-2-hydroxy-2-methyl-propyl)phenyl]ethyl]amino]pyrrolo [2,3-g]phthalazin-2-one] | 11.7
COC1(C)C(=O)N(C)c2cc3c(C)nnc(N[C@H](C)c4cccc(C(F)(F)C(C)(C)O)c4C)c3cc21 (stereo partly drawn) [Compound 174, 3-methoxy-1,3,8-trimethyl-5-[[(1R)-1-[3-(1,1-difluoro-2-hydroxy-2-methyl-propyl)-2-methyl-phenyl]ethyl]amino]pyrrolo[3,2-g]phthalazin-2-one] | 15.8
COC1(C)C(=O)N(C)c2cc3c(N[C@H](C)c4cc(F)cc(C(F)(F)C(C)(C)O)c4)nnc(C)c3cc21 (stereo partly drawn) [Compound 175, 3-methoxy-1,3,5-trimethyl-8-[[(1R)-1-[3-(1,1-difluoro-2-hydroxy-2-methyl-propyl)-5-fluoro-phenyl]ethyl]amino]pyrrolo[2,3-g]phthalazin-2-one] | 14.5
COC1(C)C(=O)N(C)c2cc3c(C)nnc(N[C@H](C)c4cccc(C(F)(F)CO)c4F)c3cc21 (stereo partly drawn) [Compound 176, 3-methoxy-1,3,8-trimethyl-5-[[(1R)-1-[3-(1,1-difluoro-2-hydroxy-ethyl)-2-fluoro-phenyl]ethyl]amino]pyrrolo[3,2-g]phthalazin-2-one] | 10.7
COC1(C)C(=O)N(C)c2cc3c(C)nnc(N[C@H](C)c4cccc(C(F)(F)CO)c4C)c3cc21 (stereo partly drawn) [Compound 177, 3-methoxy-1,3,8-trimethyl-5-[[(1R)-1-[3-(1,1-difluoro-2-hydroxy-ethyl)-2-methyl-phenyl]ethyl]amino]pyrrolo[3,2-g]phthalazin-2-one] | 9.77
COC1(C)C(=O)N(C)c2cc3c(C)nnc(N[C@H](C)c4cccc(C(F)(F)CO)c4)c3cc21 (stereo partly drawn) [Compound 178, 3-methoxy-1,3,8-trimethyl-5-[[(1R)-1-[3-(1,1-difluoro-2-hydroxy-ethyl)phenyl]ethyl]amino]pyrrolo [3,2-g]phthalazin-2-one] | 16.6
COC1(C)C(=O)N(C)c2cc3c(C)nnc(N[C@H](C)c4cccc(C(F)(F)C(C)(C)O)c4F)c3cc21 (stereo partly drawn) [Compound 179, 3-methoxy-1,3,8-trimethyl-5-[[(1R)-1-[3-(1,1-difluoro-2-hydroxy-2-methyl-propyl)-2-fluoro-phenyl]ethyl]amino]pyrrolo[3,2-g]phthalazin-2-one] | 10.2
COC1(C)C(=O)N(C)c2cc3c(C)nnc(N[C@H](C)c4cccc(C(F)(F)C(C)(C)O)c4)c3cc21 (stereo partly drawn) [Compound 180, 3-methoxy-1,3,8-trimethyl-5-[[(1R)-1-[3-(1,1-difluoro-2-hydroxy-2-methyl-propyl)phenyl]ethyl]amino]pyrrolo [3,2-g]phthalazin-2-one] | 12
COC1(C)C(=O)N(C)c2cc3c(N[C@H](C)c4cc(F)cc(C(F)(F)C(C)(C)O)c4C)nnc(C)c3cc21 (stereo partly drawn) [Compound 181, 3-methoxy-1,3,5-trimethyl-8-[[(1R)-1-[3-(1,1-difluoro-2-hydroxy-2-methyl-propyl)-5-fluoro-2-methyl-phenyl]ethyl]amino]pyrrolo[2,3-g]phthalazin-2-one] | 13.2
COC1(C)C(=O)N(C)c2cc3c(N[C@H](C)c4cc(C)cc(C(F)(F)CO)c4C)nnc(C)c3cc21 (stereo partly drawn) [Compound 182, 3-methoxy-1,3,5-trimethyl-8-[[(1R)-1-[3-(1,1-difluoro-2-hydroxy-ethyl)-2,5-dimethyl-phenyl]ethyl]amino]pyrrolo[2,3-g]phthalazin-2-one] | 9.77
